According to ChEMBL document CHEMBL1135368, “The discovery of small molecule carbamates as potent dual alpha(4)beta(1)/alpha(4)beta(7) integrin antagonists” (Bioorg Med Chem Lett, 2002):

Tested on: Rattus norvegicus
Test: Plasma clearance value at intravenous dose of 1 mg/kg (2 mg/kg po (cassette dosing) in Dawley rat
Assay type: ADME, organism-based
Set-up: dose 1 mg/kg
Details: in vivo

Clp [L/h/kg] | Compound
1.62 | C[C@@]1(C(=O)N[C@@H](Cc2ccc(OC(=O)N3CCCC3)cc2)C(=O)O)CCCN1S(=O)(=O)c1cc(Cl)cc(Cl)c1

Tested on: Rattus norvegicus
Test: Plasma clearance value at intravenous dose of 1 mg/kg (2 mg/kg po (cassette dosing)) in Dawley rat
Assay type: ADME, organism-based
Set-up: dose 1 mg/kg
Details: in vivo

Clp [L/h/kg] | Compound
10.6 | O=C(O)[C@H](Cc1ccc(OC(=O)N2CCCC2)cc1)NC(=O)[C@@H]1CCCN1S(=O)(=O)c1ccccc1
3 | C[C@@]1(C(=O)N[C@@H](Cc2ccc(OC(=O)N3CCOCC3)cc2)C(=O)O)CCCN1S(=O)(=O)c1cc(Cl)cc(Cl)c1

Compound | Clp [L/h/kg]
CN(C(=O)Oc1ccc(C[C@H](NC(=O)[C@]2(C)CCCN2S(=O)(=O)c2cc(Cl)cc(Cl)c2)C(=O)O)cc1)c1ccccc1 | 2.28

Tested on: not listed separately
Test: Tested for plasma half life period in rat (0-8 hr)
Assay type: ADME, organism-based
Details: not given

Compound | half-life [min]
CN(C(=O)Oc1ccc(C[C@H](NC(=O)[C@]2(C)CCCN2S(=O)(=O)c2cc(Cl)cc(Cl)c2)C(=O)O)cc1)c1ccccc1 | 12
O=C(O)[C@H](Cc1ccc(OC(=O)N2CCCC2)cc1)NC(=O)[C@@H]1CCCN1S(=O)(=O)c1ccccc1 | 12

Target: T1, Integrin alpha-4/beta-7 (Homo sapiens, UniProt P13612+P26010)
T1 sequence (P13612 whole entry): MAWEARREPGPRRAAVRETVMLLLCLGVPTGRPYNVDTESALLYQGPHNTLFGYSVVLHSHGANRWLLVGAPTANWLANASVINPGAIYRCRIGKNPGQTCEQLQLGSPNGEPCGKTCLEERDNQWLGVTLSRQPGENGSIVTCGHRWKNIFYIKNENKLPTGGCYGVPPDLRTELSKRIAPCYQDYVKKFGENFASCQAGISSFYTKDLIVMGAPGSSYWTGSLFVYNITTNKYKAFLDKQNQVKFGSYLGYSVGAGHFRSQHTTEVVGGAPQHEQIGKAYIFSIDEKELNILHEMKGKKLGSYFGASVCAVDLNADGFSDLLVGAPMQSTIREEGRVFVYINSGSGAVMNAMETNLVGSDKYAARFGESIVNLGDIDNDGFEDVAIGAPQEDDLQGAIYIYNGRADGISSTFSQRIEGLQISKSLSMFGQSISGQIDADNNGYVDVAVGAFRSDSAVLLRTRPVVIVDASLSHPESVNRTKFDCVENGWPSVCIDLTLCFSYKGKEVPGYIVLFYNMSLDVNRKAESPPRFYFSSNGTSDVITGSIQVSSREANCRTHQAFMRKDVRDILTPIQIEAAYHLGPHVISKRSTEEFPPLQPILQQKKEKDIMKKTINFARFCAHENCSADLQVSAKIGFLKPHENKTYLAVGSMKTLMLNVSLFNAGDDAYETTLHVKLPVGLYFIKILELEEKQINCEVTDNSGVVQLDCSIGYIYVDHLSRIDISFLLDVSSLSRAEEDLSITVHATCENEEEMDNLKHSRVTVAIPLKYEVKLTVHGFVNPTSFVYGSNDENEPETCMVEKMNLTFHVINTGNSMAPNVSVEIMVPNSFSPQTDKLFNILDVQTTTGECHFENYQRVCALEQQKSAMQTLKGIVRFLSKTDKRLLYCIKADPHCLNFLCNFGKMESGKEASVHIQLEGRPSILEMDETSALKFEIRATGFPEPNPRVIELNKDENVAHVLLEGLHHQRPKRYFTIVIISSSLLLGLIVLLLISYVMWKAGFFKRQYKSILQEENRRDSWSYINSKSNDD
T1 sequence (P26010 whole entry): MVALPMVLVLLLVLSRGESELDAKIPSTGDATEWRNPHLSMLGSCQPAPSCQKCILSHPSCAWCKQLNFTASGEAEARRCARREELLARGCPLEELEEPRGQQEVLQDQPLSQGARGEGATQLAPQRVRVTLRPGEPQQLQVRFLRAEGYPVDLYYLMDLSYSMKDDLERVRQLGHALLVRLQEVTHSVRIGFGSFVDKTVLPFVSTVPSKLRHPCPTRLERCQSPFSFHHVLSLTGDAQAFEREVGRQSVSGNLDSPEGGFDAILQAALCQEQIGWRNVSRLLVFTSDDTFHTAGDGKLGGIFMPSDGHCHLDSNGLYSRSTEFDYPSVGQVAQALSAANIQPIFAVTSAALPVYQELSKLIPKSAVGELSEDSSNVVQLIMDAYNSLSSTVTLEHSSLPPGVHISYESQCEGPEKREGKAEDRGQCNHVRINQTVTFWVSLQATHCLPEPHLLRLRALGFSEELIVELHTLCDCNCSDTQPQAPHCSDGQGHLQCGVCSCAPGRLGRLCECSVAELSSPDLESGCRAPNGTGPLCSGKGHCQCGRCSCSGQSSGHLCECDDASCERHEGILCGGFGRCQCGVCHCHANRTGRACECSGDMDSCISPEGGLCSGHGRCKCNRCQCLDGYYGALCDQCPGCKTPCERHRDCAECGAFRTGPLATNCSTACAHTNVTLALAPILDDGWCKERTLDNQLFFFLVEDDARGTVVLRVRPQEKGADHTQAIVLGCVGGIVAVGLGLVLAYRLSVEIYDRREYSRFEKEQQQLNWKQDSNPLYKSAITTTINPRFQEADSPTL
Test: Inhibition of [125I]VCAM-Ig binding to Alpha4-beta7 integrin of RPMI-8866 cells
Assay type: cell-based
Details: not given

IC50 [nM] | Compound
116 | CC(C)(C)Oc1ccc(C[C@H](NC(=O)[C@@H]2CCCN2S(=O)(=O)c2cc(Cl)cc(Cl)c2)C(=O)O)cc1
820 | O=C(O)[C@H](Cc1ccc(O)cc1)NC(=O)[C@@H]1CCCN1S(=O)(=O)c1cc(Cl)cc(Cl)c1
362 | COc1ccc(C[C@H](NC(=O)[C@@H]2CCCN2S(=O)(=O)c2cc(Cl)cc(Cl)c2)C(=O)O)cc1
299 | CCCCOc1ccc(C[C@H](NC(=O)[C@@H]2CCCN2S(=O)(=O)c2cc(Cl)cc(Cl)c2)C(=O)O)cc1
647 | CC(C)(C)Oc1ccc(C[C@H](NC(=O)[C@]2(C)CCCN2S(=O)(=O)c2cc(Cl)cc(Cl)c2)C(=O)O)cc1

Target: T1, Integrin alpha-4/beta-7
Test: Alpha4-beta7 integrin binding affinity was determined in duplicate by a radioligand binding assay using [125I]-VCAM-Ig and a suspension of RPMI-8866 cells (a human B cell line alpha-4-beta-1-beta-7+)
Assay type: cell-based
Details: not given

IC50 [nM] | Compound
43.2 | O=C(Oc1ccc(C[C@H](NC(=O)[C@@H]2CCCN2S(=O)(=O)c2cc(Cl)cc(Cl)c2)C(=O)O)cc1)c1ccccc1
5.26 | C[C@@]1(C(=O)N[C@@H](Cc2ccc(OC(=O)N3CCCC3)cc2)C(=O)O)CCCN1S(=O)(=O)c1cc(Cl)cc(Cl)c1
2.83 | O=C(O)[C@H](Cc1ccc(OC(=O)N2CCCC2)cc1)NC(=O)[C@@H]1CCCN1S(=O)(=O)c1ccccc1
211 | CC(C)(C)OC(=O)COc1ccc(C[C@H](NC(=O)[C@@H]2CCCN2S(=O)(=O)c2cc(Cl)cc(Cl)c2)C(=O)O)cc1
29.8 | CCN(CC)C(=O)Oc1ccc(C[C@H](NC(=O)[C@]2(C)CCCN2S(=O)(=O)c2cc(Cl)cc(Cl)c2)C(=O)O)cc1
3.51 | C[C@@]1(C(=O)N[C@@H](Cc2ccc(OC(=O)N3CCOCC3)cc2)C(=O)O)CCCN1S(=O)(=O)c1cc(Cl)cc(Cl)c1

Compound | IC50 [nM]
CN(C(=O)Oc1ccc(C[C@H](NC(=O)[C@]2(C)CCCN2S(=O)(=O)c2cc(Cl)cc(Cl)c2)C(=O)O)cc1)c1ccccc1 | 12.3

Target: Integrin alpha-4/beta-1 (Homo sapiens, UniProt P05556+P13612)
Sequence (P05556 whole entry, one chain of several): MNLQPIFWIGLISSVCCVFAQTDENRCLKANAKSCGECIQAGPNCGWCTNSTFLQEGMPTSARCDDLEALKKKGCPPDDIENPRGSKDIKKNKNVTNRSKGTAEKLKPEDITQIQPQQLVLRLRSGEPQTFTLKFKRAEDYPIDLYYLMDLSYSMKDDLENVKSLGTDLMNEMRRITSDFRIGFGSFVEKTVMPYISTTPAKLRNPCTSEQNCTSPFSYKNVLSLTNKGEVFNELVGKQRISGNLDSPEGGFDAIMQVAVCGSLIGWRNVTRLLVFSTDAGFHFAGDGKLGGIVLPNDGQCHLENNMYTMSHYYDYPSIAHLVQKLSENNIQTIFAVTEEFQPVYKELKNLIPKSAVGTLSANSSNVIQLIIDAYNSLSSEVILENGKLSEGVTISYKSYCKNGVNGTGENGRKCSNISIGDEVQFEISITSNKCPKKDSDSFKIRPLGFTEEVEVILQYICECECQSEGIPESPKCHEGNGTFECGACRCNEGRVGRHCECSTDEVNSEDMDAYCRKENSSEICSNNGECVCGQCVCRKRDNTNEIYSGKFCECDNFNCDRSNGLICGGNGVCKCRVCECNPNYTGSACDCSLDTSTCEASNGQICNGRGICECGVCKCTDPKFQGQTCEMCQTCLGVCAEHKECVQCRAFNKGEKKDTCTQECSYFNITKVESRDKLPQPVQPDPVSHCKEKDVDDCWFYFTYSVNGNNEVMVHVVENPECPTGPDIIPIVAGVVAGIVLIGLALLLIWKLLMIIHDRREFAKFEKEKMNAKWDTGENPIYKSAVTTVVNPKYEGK
Test: Alpha4-beta1 integrin binding affinity was assessed by measuring the reduction in binding of [125I]VCAM-Ig to a suspension of Jurkat cells (a human T cell line alpha-4-beta-1-beta-7)
Assay type: cell-based
Details: not given

Compound | IC50 [nM]
CN(C(=O)Oc1ccc(C[C@H](NC(=O)[C@]2(C)CCCN2S(=O)(=O)c2cc(Cl)cc(Cl)c2)C(=O)O)cc1)c1ccccc1 | 0.25
O=C(Oc1ccc(C[C@H](NC(=O)[C@@H]2CCCN2S(=O)(=O)c2cc(Cl)cc(Cl)c2)C(=O)O)cc1)c1ccccc1 | 0.45
C[C@@]1(C(=O)N[C@@H](Cc2ccc(OC(=O)N3CCCC3)cc2)C(=O)O)CCCN1S(=O)(=O)c1cc(Cl)cc(Cl)c1 | 0.17
O=C(O)[C@H](Cc1ccc(OC(=O)N2CCCC2)cc1)NC(=O)[C@@H]1CCCN1S(=O)(=O)c1ccccc1 | 0.14
CC(C)(C)OC(=O)COc1ccc(C[C@H](NC(=O)[C@@H]2CCCN2S(=O)(=O)c2cc(Cl)cc(Cl)c2)C(=O)O)cc1 | 0.13
CCN(CC)C(=O)Oc1ccc(C[C@H](NC(=O)[C@]2(C)CCCN2S(=O)(=O)c2cc(Cl)cc(Cl)c2)C(=O)O)cc1 | 0.19
CC(C)(C)Oc1ccc(C[C@H](NC(=O)[C@]2(C)CCCN2S(=O)(=O)c2cc(Cl)cc(Cl)c2)C(=O)O)cc1 | 0.27
C[C@@]1(C(=O)N[C@@H](Cc2ccc(OC(=O)N3CCOCC3)cc2)C(=O)O)CCCN1S(=O)(=O)c1cc(Cl)cc(Cl)c1 | 0.13

The remaining lines, values ahead:

IC50 [nM] | Compound
0.21 | CC(C)(C)Oc1ccc(C[C@H](NC(=O)[C@@H]2CCCN2S(=O)(=O)c2cc(Cl)cc(Cl)c2)C(=O)O)cc1
0.34 | O=C(O)[C@H](Cc1ccc(O)cc1)NC(=O)[C@@H]1CCCN1S(=O)(=O)c1cc(Cl)cc(Cl)c1
0.37 | COc1ccc(C[C@H](NC(=O)[C@@H]2CCCN2S(=O)(=O)c2cc(Cl)cc(Cl)c2)C(=O)O)cc1
1.11 | CCCCOc1ccc(C[C@H](NC(=O)[C@@H]2CCCN2S(=O)(=O)c2cc(Cl)cc(Cl)c2)C(=O)O)cc1
